Assay results: US12410155B2, “Salt form and crystal form of tetrahydrocyclohepta indazole compound” (Zhejiang Yangli Pharmaceutical Technology Co., Ltd., priority 2021, dated 2025)
Like-named read-outs stand apart in the source and are kept apart here.

Assays:
[1] = Pharmacokinetic study in Beagle dogs; assay type: in vivo; details: both sexes, dog, plasma, Beagles
Experimental: (4) Pharmacokinetic Study in Beagle Dogs
Objective: To determine the concentration of the test compound in plasma at various time points after intravenous and intragastric administration in male and female Beagle dogs using the LC/MS/MS method.
An appropriate amount of the sample was weighed and prepared into 0.2 mg/mL and 0.3 mg/mL solutions, stirred until a clear solution was obtained, with 20% SBE-β-CD as the vehicle.
Administration: After an overnight fast, the IV group received intravenous administration at a dose of 0.3 mg/kg; the PO group received intragastric administration at a dose of 1 mg/kg.
For the intravenous injection group, Beagle dogs were administered the test compound, and blood samples (800 μL) were collected from the peripheral vein at 0.25, 0.5, 1, 2, 4, 6, 8, 24, 32, 48, 72, and 96 hours post-administration. The samples were placed into commercially available anticoagulant tubes pre-filled with EDTA-K2. For the intragastric administration group, after administering the test compound, blood samples (800 μL) were collected from the peripheral vein at 0.25, 0.5, 1, 2, 4, 6, 8, 24, 32, 48, 72, and 96 hours. These samples were also placed into commercially available anticoagulant tubes pre-filled with EDTA-K2. Following centrifugation (3,200 g, 2-8° C., 10 minutes), the plasma was transferred to pre-chilled centrifuge tubes, flash-frozen in dry ice, and stored in an ultra-low temperature freezer at −60° C. or lower until LC-MS/MS analysis. Animals were allowed to eat 4 hours post-dosing. The concentration of the test compound in the plasma of Beagle dogs after intravenous and intragastric administration was determined using the LC/MS/MS method.

[2] = Pharmacokinetic study in rats; assay type: in vivo; details: both sexes, Sprague-Dawley, rat, plasma
Experimental: (3) Pharmacokinetic Study in Rats
Objective: To determine the concentration of the test compound in plasma at various time points after intravenous and intragastric administration in male and female Sprague-Dawley rats using the LC/MS/MS method.
An appropriate amount of the sample was weighed and prepared into a 0.2 mg/ml solution, and stirred until a clear solution was obtained, with 20% SBE-β-CD as the vehicle.
Administration: After an overnight fast, the IV group received intravenous administration at a dose of 1 mg/kg; the PO group received intragastric administration at a dose of 2 mg/kg.
For the intravenous injection group, male and female Sprague-Dawley rats were administered the test compound, and blood samples (200 μL) were collected from the jugular vein at 0.0830, 0.250, 0.500, 1.00, 2.00, 4.00, 6.00, 8.00, 24.0, 32.0, and 48.0 hours post-administration. The samples were placed into commercially available anticoagulant tubes pre-filled with EDTA-K2. For the intragastric administration group, after administering the test compound, blood samples (200 μL) were collected from the jugular vein at 0.250, 0.500, 1.00, 2.00, 4.00, 6.00, 8.00, 24.0, 32.0, and 48.0 hours. These samples were also placed into commercially available anticoagulant tubes pre-filled with EDTA-K2. Following centrifugation (3,200 g, 4° C., 10 minutes), the plasma was transferred to pre-chilled centrifuge tubes, flash-frozen in dry ice, and stored in an ultra-low temperature freezer at −60° C. or lower until LC-MS/MS analysis. Animals were allowed to eat 4 hours post-dosing. The concentration of the test compound in the plasma of rats after intravenous and intragastric administration was determined using the LC/MS/MS method.

[3] = Pharmacokinetic study in mice; assay type: in vivo; details: female, Balb/c, mouse, plasma
Experimental: (2) Pharmacokinetic Study in Mice
Objective: To determine the concentration of the test compound in plasma at various time points after intravenous and intragastric administration in female Balb/c mice using the LC/MS/MS method. To investigate the pharmacokinetic behavior of the crystal form C of the compound of formula (I) in mice and to evaluate its pharmacokinetic characteristics.
Administration: After an overnight fast, the IV group received intravenous administration at a dose of 5 mg/kg; the PO group received intragastric administration at a dose of 10 mg/kg.
For the intravenous injection group, female Balb/c mice were administered the test compound, and blood samples (30 μL) were collected from the saphenous vein at 0.0833, 0.25, 0.5, 1, 2, 4, 8, and 24 hours post-administration. The samples were placed into commercially available anticoagulant tubes pre-filled with EDTA-K2. For the intragastric administration group, after administering the test compound, blood samples (30 μL) were collected from the jugular vein at 0.25, 0.5, 1, 2, 4, 8, 12, and 24 hours. These samples were also placed into commercially available anticoagulant tubes pre-filled with EDTA-K2. Following centrifugation (3,200 g, 4° C., 10 minutes), the plasma was transferred to pre-chilled centrifuge tubes, flash-frozen in dry ice, and stored in an ultra-low temperature freezer at −60° C. or lower until LC-MS/MS analysis. Animals were allowed to eat 4 hours post-dosing. The concentration of the test compound in the plasma of mice after intravenous and intragastric administration was determined using the LC/MS/MS method.

[4] = system: human breast cancer MCF-7 cell subcutaneous xenograft tumor; assay type: in vivo; details: for Tumor volume (mm^3) (Day 0): Day 0 (at grouping); for RTV (Day 21) / Tumor volume (mm^3) (Day 21) / T/C (%) / TGI (%): Day 21
Experimental: (1) In Vivo Pharmacodynamic Study of Breast Cancer MCF-7 Cell Subcutaneous Xenograft Tumor BALB/c Nude Mouse Model
Objective: This study aimed to evaluate the in vivo efficacy of the crystal form C of the compound of formula (I) using a human breast cancer MCF-7 cell subcutaneous xenograft tumor model in nude mice.
Routine digestion with trypsin-EDTA (Gibco) was performed twice a week for passaging.
Cell inoculation: Estrogen pellets (0.36 mg/pellet; IRA) were subcutaneously inoculated into the left dorsum of each mouse. Three days later, 0.2 mL (1×10^7 cells) of MCF-7 cells (mixed with Matrigel; CORNING, volume ratio 1:1) were subcutaneously inoculated into the right dorsum of each mouse. When the average tumor volume reached 188 mm^3, the mice were grouped and the administration of compounds began.
An appropriate amount of the compound of formula (I) was weighed and prepared into 0.1, 0.3, 1, and 3 mg/mL solutions. […] Fulvestrant was used as the commercially available injection Faslodex.
The antitumor efficacy of the compounds was evaluated using Tumor Growth Inhibition (TGI, %) and relative tumor proliferation rate (T/C, %).
The Q value of combined medication index was calculated using the Jin formula. The criteria for judgment were as follows: a Q value of 0.85 to 1.15 indicated […] (+); a Q value>1.15 to 2.0 indicated enhancement (++); a Q value<0.85 to 0.55 indicated antagonism (−); and a Q value<0.55 indicated significant antagonism (−−). The formula was Q=Ea+b/(Ea+Eb−Ea×Eb), where Ea+b was the tumor inhibition rate of the combined medication group, and Ea and Eb were the tumor inhibition rates of the single medication groups, respectively.
Inter-group comparisons were analyzed using one-way ANOVA. […] A p value<0.05 was considered to indicate a significant difference.

[5] = in vivo; cited from earlier work
breast cancer = details: intramuscular injection; cited from earlier work

Structure (SMILES): CS(=O)(=O)O.FCCCN1CC[C@H](Nc2cnc(C3=C(CC(F)(F)F)CCCc4c3ccc3[nH]nc(F)c43)cn2)C1
- AUC(0-t) ([1]; IV, 0.3 mg/kg): 1.31 µM·h
- clearance ([1]; IV, 0.3 mg/kg): 3.8 mL/min/kg
- half-life ([1]; IV, 0.3 mg/kg): 1450 min
- Vd ([1]; IV, 0.3 mg/kg, read-out: Vdss): 7.48 L/kg
- AUC(0-t) ([1]; PO, 1 mg/kg): 2.27 µM·h
- Cmax ([1]; PO, 1 mg/kg): 61 nM
- bioavailability ([1]; PO, 1 mg/kg): 52%
- half-life ([1]; PO, 1 mg/kg): 1300 min
- AUC(0-t) ([2]; IV, 1 mg/kg): 1.71 µM·h
- clearance ([2]; IV, 1 mg/kg): 22.1 mL/min/kg
- half-life ([2]; IV, 1 mg/kg): 636 min
- Vd ([2]; IV, 1 mg/kg, read-out: Vdss): 13.6 L/kg
- AUC(0-t) ([2]; PO, 2 mg/kg): 1.63 µM·h
- Cmax ([2]; PO, 2 mg/kg): 87.7 nM
- bioavailability ([2]; PO, 2 mg/kg): 47.7%
- half-life ([2]; PO, 2 mg/kg): 618 min

Structure (SMILES): FCCCN1CC[C@H](Nc2cnc(C3=C(CC(F)(F)F)CCCc4c3ccc3[nH]nc(F)c43)cn2)C1
- AUC(0-t) ([3]; IV, 5 mg/kg): 5.27 µM·h
- clearance ([3]; IV, 5 mg/kg): 30.2 mL/min/kg
- half-life ([3]; IV, 5 mg/kg): 310 min
- Vd ([3]; IV, 5 mg/kg, read-out: Vdss): 11.1 L/kg
- AUC(0-t) ([3]; PO, 10 mg/kg): 5.86 µM·h
- Cmax ([3]; PO, 10 mg/kg): 779 nM
- bioavailability ([3]; PO, 10 mg/kg): 55.4%
- half-life ([3]; PO, 10 mg/kg): 283 min
- ORR % ([4]; 1 mg/kg, PO, QD): 0%
- Tumor volume (mm^3) (Day 0) ([4]; 1 mg/kg, PO, QD): 188 ± 12 mm^3
- RTV (Day 21) ([4]; 1 mg/kg, PO, QD): 1.82 ± 0.12
- Tumor volume (mm^3) (Day 21) ([4]; 1 mg/kg, PO, QD): 340 ± 30 mm^3
- DCR % ([4]; 3 mg/kg, PO, QD): 100%
- ORR % ([4]; 3 mg/kg, PO, QD): 0%
- Tumor volume (mm^3) (Day 0) ([4]; 3 mg/kg, PO, QD): 188 ± 13 mm^3
- RTV (Day 21) ([4]; 3 mg/kg, PO, QD): 0.99 ± 0.11
- Tumor volume (mm^3) (Day 21) ([4]; 3 mg/kg, PO, QD): 179 ± 14 mm^3
- Tumor volume (mm^3) (Day 0) ([4]; 10 mg/kg, PO, QD): 188 ± 12 mm^3
- RTV (Day 21) ([4]; 10 mg/kg, PO, QD): 0.75 ± 0.09
- Tumor volume (mm^3) (Day 21) ([4]; 10 mg/kg, PO, QD): 140 ± 18 mm^3
- Tumor volume (mm^3) (Day 0) ([4]; 30 mg/kg, PO, QD): 188 ± 12 mm^3
- RTV (Day 21) ([4]; 30 mg/kg, PO, QD): 0.64 ± 0.07
- Tumor volume (mm^3) (Day 21) ([4]; 30 mg/kg, PO, QD): 121 ± 13 mm^3
- Tolerability in tumor-bearing mice ([4]; 1 to 30 mg/kg, PO, QD): tolerated the crystal form C of the compound of formula (I) well

Structure (SMILES): C[C@]12CC[C@@H]3c4ccc(O)cc4C[C@@H](CCCCCCCCC[S+]([O-])CCCC(F)(F)C(F)(F)F)[C@H]3[C@@H]1CC[C@@H]2O (stereo partly drawn) [Fulvestrant, reference compound]
- oral bioavailability [5]: near-zero
- DCR % ([4]; 5 mg/mouse, SC, QW): 0%
- Tumor volume (mm^3) (Day 0) ([4]; 5 mg/mouse, SC, QW): 188 ± 12 mm^3
- RTV (Day 21) ([4]; 5 mg/mouse, SC, QW): 3.12 ± 0.31
- T/C (%) ([4]; 5 mg/mouse, SC, QW): 46.9%
- TGI (%) ([4]; 5 mg/mouse, SC, QW): 60.9%
- Tumor volume (mm^3) (Day 21) ([4]; 5 mg/mouse, SC, QW): 593 ± 79 mm^3
- Tumor volume (mm^3) (Day 21) ([4]; 5 mg/mouse, SC, QW, listed as fulvestrant): 593 mm^3
- breast cancer patients showing a clinical response (breast cancer): about 50%

Structure (SMILES): CC(=O)c1c(C)c2cnc(Nc3ccc(N4CCNCC4)cn3)nc2n(C2CCCC2)c1=O [Palbociclib, reference compound]
- DCR % ([4]; 25 mg/kg, PO, QD): 12.5%
- ORR % ([4]; 25 mg/kg, PO, QD): 0%
- Tumor volume (mm^3) (Day 0) ([4]; 25 mg/kg, PO, QD): 188 ± 12 mm^3
- RTV (Day 21) ([4]; 25 mg/kg, PO, QD): 4.26 ± 0.51
- T/C (%) ([4]; 25 mg/kg, PO, QD): 64.0%
- TGI (%) ([4]; 25 mg/kg, PO, QD): 42.8%
- Tumor volume (mm^3) (Day 21) ([4]; 25 mg/kg, PO, QD): 781 ± 77 mm^3
- Tumor volume (mm^3) (Day 21) ([4]; 25 mg/kg, PO, QD, listed as palbociclib): 781 mm^3
